# Tests used:
# Plasmodium falciparum [1] = test: NOVARTIS: Inhibition of Plasmodium falciparum 3D7 (drug-susceptible) proliferation in erythrocyte-based infection assay; type: functional, organism-based; details: Plasmodium falciparum, 3D7
# Plasmodium falciparum [2] = test: NOVARTIS: Inhibition of Plasmodium falciparum W2 (drug-resistant) proliferation in erythrocyte-based infection assay; type: functional, organism-based; details: Plasmodium falciparum, W2; read-out: EC50
# [3] = NOVARTIS: Cytotoxicity against human hepatocellular carcinoma cell line (Huh7); type: toxicity, cell-based, Huh-7; details: Huh7 cells (hepatocellular carcinoma cell line)
smiles,measurement,setting,value
COCCOC(=O)C1=C(C)NC2=C(C(=O)CC(c3ccc(OC)c(OC)c3)C2)C1c1cccc(Cl)c1Cl (stereo unspecified),EC50,Plasmodium falciparum [1],0.178 µM
same,EC50,Plasmodium falciparum [2],0.058 µM
same,CC50,[3],> 100 µM
Cc1cc(Nc2ccc(Br)c(C)c2)n2nc(C)nc2n1,EC50,Plasmodium falciparum [1],0.053 µM
same,EC50,Plasmodium falciparum [2],0.0458 µM
same,CC50,[3],> 100 µM
O=C(Nc1ccccc1C(=O)O)c1cccc(NC(=O)c2ccco2)c1,EC50,Plasmodium falciparum [1],> 0.947 µM
same,EC50,Plasmodium falciparum [2],0.471 µM
same,CC50,[3],> 10 µM
COc1ccc(CN2CC(=O)N(c3ccc(Cl)cc3)C2=S)cc1OC,EC50,Plasmodium falciparum [1],> 1.18 µM
same,EC50,Plasmodium falciparum [2],> 1.25 µM
same,CC50,[3],> 10 µM
CC1=C(C(=O)OCCOc2ccccc2)C(c2cccc([N+](=O)[O-])c2)C2=C(CCCC2=O)N1 (stereo unspecified),EC50,Plasmodium falciparum [1],> 1.25 µM
same,EC50,Plasmodium falciparum [2],1.81 µM
same,CC50,[3],> 10 µM
CC1CC(N(C(=O)c2ccc(Cl)cc2Cl)c2ccccc2)c2ccccc2N1C(=O)c1ccc(Cl)cc1 (stereo unspecified),EC50,Plasmodium falciparum [1],2.77 µM
same,EC50,Plasmodium falciparum [2],2.53 µM
same,CC50,[3],> 100 µM
CCN(CC)CCCC(C)Nc1cc(/C=C/c2ccc([N+](=O)[O-])cc2)nc2cc(OC)ccc12 (stereo unspecified),EC50,Plasmodium falciparum [1],0.479 µM
same,EC50,Plasmodium falciparum [2],0.41 µM
same,CC50,[3],> 10 µM
C=CCC1(Nc2ccccc2)CCCCC1,EC50,Plasmodium falciparum [1],> 1.25 µM
same,EC50,Plasmodium falciparum [2],> 1.05 µM
same,CC50,[3],> 10 µM
CCCCn1nccc1Nc1cc(C)c(C#N)c2nc3ccccc3n12,EC50,Plasmodium falciparum [1],4.42 µM
same,EC50,Plasmodium falciparum [2],2.61 µM
same,CC50,[3],> 100 µM
COc1cc(C(=O)ON=C(N)Cc2cccc3ccccc23)cc(OC)c1OC,EC50,Plasmodium falciparum [1],0.28 µM
same,EC50,Plasmodium falciparum [2],0.171 µM
same,CC50,[3],48.1 µM
CSc1ccc(C=CC(=O)NC(=O)c2ccccc2O)cc1,EC50,Plasmodium falciparum [1],0.243 µM
same,EC50,Plasmodium falciparum [2],0.225 µM
same,CC50,[3],> 100 µM
COc1ccccc1N1C(=N)SC(=Cc2ccc(N(C)C)cc2)C1=O,EC50,Plasmodium falciparum [1],0.101 µM
same,EC50,Plasmodium falciparum [2],0.0525 µM
same,CC50,[3],2.21 µM
Cc1cc(C)cc(Nc2cc(C)nc3nc(C)nn23)c1,EC50,Plasmodium falciparum [1],0.594 µM
same,EC50,Plasmodium falciparum [2],0.536 µM
same,CC50,[3],> 100 µM
O=[N+]([O-])c1ccc(-n2ncc(-c3nc(-c4ccc(Cl)cc4)no3)c2C(F)(F)F)cc1,EC50,Plasmodium falciparum [1],> 1.21 µM
same,EC50,Plasmodium falciparum [2],0.0267 µM
same,CC50,[3],> 10 µM
CCC12C(=O)C(CC)(C(c3ccccc3)=C1c1ccccc1)C1C(=O)N(c3cccc(C(F)(F)F)c3)C(=O)C12 (stereo unspecified),EC50,Plasmodium falciparum [1],2.41 µM
same,EC50,Plasmodium falciparum [2],0.401 µM
same,CC50,[3],> 100 µM
c1ccc(-c2nc(NCCCn3ccnc3)cc(-c3ccncc3)n2)cc1,EC50,Plasmodium falciparum [1],0.238 µM
same,EC50,Plasmodium falciparum [2],0.458 µM
same,CC50,[3],> 10 µM
O=C1[C@H]2Cc3c([nH]c4ccccc34)C(CCc3ccccc3)N2C(=O)CN1CCc1c[nH]c2ccccc12 (stereo partly specified),EC50,Plasmodium falciparum [1],1.35 µM
same,EC50,Plasmodium falciparum [2],0.208 µM
same,CC50,[3],> 10 µM
O=C(/C=C/c1ccccc1Cl)Nc1ccc(Oc2ccc3ccccc3c2Cl)c(Cl)c1,EC50,Plasmodium falciparum [1],> 0.958 µM
same,EC50,Plasmodium falciparum [2],> 1.25 µM
same,CC50,[3],> 10 µM
CC(=O)c1ccc(OCCSc2nc3c(N)ncnc3[nH]2)cc1,EC50,Plasmodium falciparum [1],> 11.2 µM
same,EC50,Plasmodium falciparum [2],> 9.15 µM
same,CC50,[3],> 100 µM
CCOC(=O)c1cnc2ccc3c(c(C)c(C)n3C)c2c1O,EC50,Plasmodium falciparum [1],0.37 µM
same,EC50,Plasmodium falciparum [2],0.37 µM
same,CC50,[3],> 10 µM
CC(=O)Nc1c(NCc2ccccc2)c2ccccc2sc1=O,EC50,Plasmodium falciparum [1],0.505 µM
same,EC50,Plasmodium falciparum [2],0.154 µM
same,CC50,[3],> 100 µM
CCCOC(=O)C1=C(C)NC2=C(C(=O)CC(c3ccc(OC)cc3)C2)C1c1ccc([N+](=O)[O-])cc1 (stereo unspecified),EC50,Plasmodium falciparum [1],0.281 µM
same,EC50,Plasmodium falciparum [2],0.0514 µM
same,CC50,[3],> 100 µM
COc1cncc(-c2cncc(-c3ccc(Oc4ccccc4)cc3)n2)c1,EC50,Plasmodium falciparum [1],0.0439 µM
same,EC50,Plasmodium falciparum [2],0.0798 µM
same,CC50,[3],> 100 µM
COc1ccc(S(=O)(=O)N=C2C=C(Nc3ccccc3OC)C(=O)c3ccccc32)cc1,EC50,Plasmodium falciparum [1],0.338 µM
same,EC50,Plasmodium falciparum [2],0.154 µM
same,CC50,[3],20.1 µM
COc1ccc(-c2cc(=O)c3c(O)cc(OC4OC(COC5OC(C)C(O)C(O)C5O)C(O)C(O)C4O)cc3o2)cc1 (stereo unspecified),EC50,Plasmodium falciparum [1],> 12.5 µM
same,EC50,Plasmodium falciparum [2],4.42 µM
same,CC50,[3],> 100 µM
CCC(Oc1ccc(C(C)(C)CC)cc1C(C)(C)CC)C(=O)Nc1ccc([N+](=O)[O-])cc1O (stereo unspecified),EC50,Plasmodium falciparum [1],> 5.26 µM
same,EC50,Plasmodium falciparum [2],0.348 µM
same,CC50,[3],> 100 µM
CC(C)CNC(=O)c1cnc(NCCC2CCCN2C)nc1NCCc1ccccc1 (stereo unspecified),EC50,Plasmodium falciparum [1],0.699 µM
same,EC50,Plasmodium falciparum [2],> 1.25 µM
same,CC50,[3],> 10 µM
